Source: patent US10710980B2, “Aminopyridine derivatives and their use as selective ALK-2 inhibitors” (priority 2016, dated 2020)
≈ marks a conversion by molar mass, not a printed value.

Columns and labels:
ALK3 (aa198-525) = ALK3 (aa198-525) (Homo sapiens (Human), UniProt P36894); experiment: ADPGlo biochemical autophosphorylation assay, ALK3; details: 15 μm ATP, 60 min at 32° C.
ALK5 (aa162-503) = ALK5 (aa162-503) (Homo sapiens (Human), UniProt P36897); experiment: Caliper biochemical peptide phosphorylation assay, ALK5; details: 15 μm ATP, 60 min at 30° C.; read-out: ALK5 EPK (IC50)
Chain of ALK5 (aa162-503) (P36897 162-503): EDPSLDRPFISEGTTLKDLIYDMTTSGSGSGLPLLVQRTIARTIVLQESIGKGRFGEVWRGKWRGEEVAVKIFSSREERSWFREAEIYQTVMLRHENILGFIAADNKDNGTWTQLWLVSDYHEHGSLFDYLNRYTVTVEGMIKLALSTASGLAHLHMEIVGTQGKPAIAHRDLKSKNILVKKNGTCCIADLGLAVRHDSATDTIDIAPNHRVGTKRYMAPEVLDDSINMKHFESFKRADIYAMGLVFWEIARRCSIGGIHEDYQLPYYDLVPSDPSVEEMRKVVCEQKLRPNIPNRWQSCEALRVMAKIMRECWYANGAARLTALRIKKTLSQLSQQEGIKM

[1] = biological target: T1, wild-type ALK2 (aa172-499) (Homo sapiens (Human), UniProt Q04771); experiment: ADPGlo biochemical autophosphorylation assay, ALK2; details: 15 μm ATP, 60 min at 32° C.
T1 sequence (Q04771 172-499): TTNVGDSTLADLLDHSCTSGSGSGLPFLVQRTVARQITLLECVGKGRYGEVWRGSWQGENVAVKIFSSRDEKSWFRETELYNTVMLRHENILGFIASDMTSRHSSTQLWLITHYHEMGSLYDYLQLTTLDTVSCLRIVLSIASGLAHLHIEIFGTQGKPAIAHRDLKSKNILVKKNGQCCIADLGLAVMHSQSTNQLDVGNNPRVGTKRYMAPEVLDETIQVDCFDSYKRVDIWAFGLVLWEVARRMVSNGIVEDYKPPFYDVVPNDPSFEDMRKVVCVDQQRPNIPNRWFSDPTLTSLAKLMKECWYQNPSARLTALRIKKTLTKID

[2] = tested on: BMP response element (BRE) luciferase reporter in HuH7 cells, BMP6 stimulated; experiment: BMP signaling reporter gene assay; type: cell-based; details: Homo sapiens, Huh-7; HuH7 BRE-luciferase, BMP6 100 ng/ml, 5 hours; read-out: MSD BMP RGA IC50
ALK6 (aa168-495) = ALK6 (aa168-495) (Homo sapiens (Human), UniProt O00238); experiment: Caliper biochemical peptide phosphorylation assay, ALK6; details: 15 μm ATP, 60 min at 30° C.; read-out: ALK6 EPK (IC50)
Chain of ALK6 (aa168-495) (O00238 168-495): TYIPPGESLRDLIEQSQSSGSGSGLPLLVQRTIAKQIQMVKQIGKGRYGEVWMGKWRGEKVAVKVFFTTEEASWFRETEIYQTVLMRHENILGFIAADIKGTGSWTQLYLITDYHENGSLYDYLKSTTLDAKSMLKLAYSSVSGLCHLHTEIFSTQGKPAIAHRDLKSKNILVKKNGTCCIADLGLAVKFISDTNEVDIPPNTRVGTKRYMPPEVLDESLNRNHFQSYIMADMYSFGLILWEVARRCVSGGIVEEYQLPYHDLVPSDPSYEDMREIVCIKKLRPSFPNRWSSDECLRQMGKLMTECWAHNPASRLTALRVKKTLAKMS

[3] = biological target: T1, wild-type ALK2 (aa172-499); experiment: Caliper biochemical peptide phosphorylation assay, ALK2; details: 15 μm ATP, 60 min at 30° C.; read-out: ALK2 EPK (IC50)
ALK1 (aa166-493) = ALK1 (aa166-493) (Homo sapiens (Human), UniProt P37023); experiment: Caliper biochemical peptide phosphorylation assay, ALK1; details: 15 μm ATP, 60 min at 30° C.; read-out: ALK1 EPK (IC50)
Chain of ALK1 (aa166-493) (P37023 166-493): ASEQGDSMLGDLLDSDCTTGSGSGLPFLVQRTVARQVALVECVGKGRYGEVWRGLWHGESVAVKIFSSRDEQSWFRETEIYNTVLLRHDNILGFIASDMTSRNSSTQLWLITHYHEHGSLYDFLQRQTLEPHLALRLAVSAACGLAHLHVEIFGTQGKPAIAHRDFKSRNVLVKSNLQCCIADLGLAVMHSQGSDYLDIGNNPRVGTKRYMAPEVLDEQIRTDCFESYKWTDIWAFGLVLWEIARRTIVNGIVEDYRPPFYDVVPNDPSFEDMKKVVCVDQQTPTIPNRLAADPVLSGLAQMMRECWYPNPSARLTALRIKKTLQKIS

[4] = Solubility (at 25° C., 24 h equilibration); type: physicochemical; details: target concentration 2 mg/mL; for solubility at 24 h: 25 °C, thermodynamic from solid; for solubility: 25° C., 24 h

Chain of ALK3 (aa198-525) (P36894 198-525): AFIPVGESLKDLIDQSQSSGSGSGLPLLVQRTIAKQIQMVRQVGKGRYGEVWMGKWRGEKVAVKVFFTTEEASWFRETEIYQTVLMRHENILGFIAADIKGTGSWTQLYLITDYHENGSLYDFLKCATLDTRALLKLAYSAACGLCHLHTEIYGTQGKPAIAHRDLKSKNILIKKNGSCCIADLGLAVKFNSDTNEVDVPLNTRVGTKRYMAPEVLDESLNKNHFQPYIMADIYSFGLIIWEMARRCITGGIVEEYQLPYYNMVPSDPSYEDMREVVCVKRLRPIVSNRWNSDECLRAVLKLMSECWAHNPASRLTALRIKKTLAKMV

SMILES	IC50 (ALK3 (aa198-525)) [µM]	IC50 (ALK5 (aa162-503)) [µM]	IC50 [1] [µM]	IC50 [2] [µM]	IC50 (ALK6 (aa168-495)) [µM]	IC50 [3] [µM]	IC50 (ALK1 (aa166-493)) [µM]	solubility at 24 h ([4]; 1N HCl, pH 1, simulated gastric fluid, pH 1.0 1N HCl/1.1, 24 h) [µg/mL]	solubility at 24 h ([4]; FeSSIF, pH 5.8, fessif, pH 5.8 FeSSIF/5.9, 24 h) [µg/mL]	solubility at 24 h ([4]; HCl buffer, pH 2, simulated gastric fluid, pH 2.0 HCl buffer 2.1, 24 h) [µg/mL]	solubility at 24 h ([4]; SGF, pH 2, simulated gastric fluid, pH 2.0 SGF/2.0, 24 h) [µg/mL]	solubility ([4]; Water/7.2) [µg/mL]	solubility at 24 h ([4]; acetate buffer, pH 4.7, aqueous buffer, pH 4.7 acetate buffer/4.8, 24 h) [µg/mL]	solubility ([4]; pH 6.5 FaSSIF/6.5) [µg/mL]	solubility ([4]; pH 6.8 phosphate buffer/6.8) [µg/mL]	solubility ([4]; pH 9.0 borate buffer/8.6)
COCCN1C[C@H]2C[C@@]2(c2ccc(-c3cnc(N)c(C(=O)N[C@H]4CC[C@H](O)CC4)c3)cc2)C1 [Example 75, 2-amino-N-((1r,4R)-4-hydroxycyclohexyl)-5-(4-((1R,5S)-3-(2-methoxyethyl)-3-azabicyclo[3.1.0]hexan-1-yl)phenyl)nicotinamide]	1.8	4.6	0.011	0.33	7.7	0.14	0.21									
CC(F)(F)CN1C[C@@H]2C[C@]2(c2ccc(-c3cnc(N)c(C(=O)N[C@H]4CC[C@H](O)CC4)c3)cc2)C1 [Example 76, 2-amino-5-(4-((1S,5R)-3-(2,2-difluoropropyl)-3-azabicyclo[3.1.0]hexan-1-yl)phenyl)-N-((1r,4S)-4-hydroxycyclohexyl)nicotinamide]	3.2	9.4	0.034	2.3	8.4	0.079	0.37									
Nc1ncc(-c2ccc([C@@]34C[C@@H]3CN(CC(F)(F)F)C4)cc2)cc1C(=O)N[C@H]1CC[C@H](O)CC1 [Example 77, 2-amino-N-((1r,4R)-4-hydroxycyclohexyl)-5-(4-((1R,5S)-3-(2,2,2-trifluoroethyl)-3-azabicyclo[3.1.0]hexan-1-yl)phenyl)nicotinamide]	3.3	10	0.028	1.3	8.6	0.08	0.32									
[2H][C@]1(O)CC[C@H](NC(=O)c2cc(-c3ccc([C@]45C[C@H]4CN(C(C)C)C5)cc3)cnc2N)CC1 [Example 78, 2-amino-N-((1r,4S)-4-hydroxycyclohexyl-4-d)-5-(4-((1S,5R)-3-isopropyl-3-azabicyclo[3.1.0]hexan-1-yl)phenyl)nicotinamide]	8.3	7.8	0.037	0.22	10	0.109	0.31									
CN1CCN(C(=O)c2ccc(-c3cnc(N)c(C(=O)N[C@H]4CC[C@@H](O)CC4)c3)cc2)CC1 [Example 79, 2-amino-N-((1s,4s)-4-hydroxycyclohexyl)-5-(4-(4-methylpiperazine-1-carbonyl)phenyl)nicotinamide]	6.5	4.1	0.086	2.7	10	0.087	0.89									
Nc1ncc(-c2ccc([C@@]34C[C@@H]3CN(C3CCC(F)(F)CC3)C4)cc2)cc1C(=O)NC12CCC(O)(CC1)CC2 [Example 80, 2-amino-5-(4-((1R,5S)-3-(4,4-difluorocyclohexyl)-3-azabicyclo[3.1.0]hexan-1-yl)phenyl)-N-(4-hydroxybicyclo[2.2.2]octan-1-yl)nicotinamide]	1.8	6.6	0.058	0.058	4.6	0.087	0.68									
C[C@@H]1CCCN1Cc1ccc(-c2cnc(N)c(C(=O)N[C@H]3CC[C@](C)(O)CC3)c2)c(Cl)c1 [Example 81, 2-amino-5-(2-chloro-4-(((R)-2-methylpyrrolidin-1-yl)methyl)phenyl)-N-((1r,4R)-4-hydroxy-4-methylcyclohexyl)nicotinamide]	15.1	10	0.15	1.25	10	0.11	3									

Further lines, results first:

IC50 (ALK3 (aa198-525)) [µM]	IC50 (ALK5 (aa162-503)) [µM]	IC50 [1] [µM]	IC50 [2] [µM]	IC50 (ALK6 (aa168-495)) [µM]	IC50 [3] [µM]	IC50 (ALK1 (aa166-493)) [µM]	solubility at 24 h ([4]; 1N HCl, pH 1, simulated gastric fluid, pH 1.0 1N HCl/1.1, 24 h) [µg/mL]	solubility at 24 h ([4]; FeSSIF, pH 5.8, fessif, pH 5.8 FeSSIF/5.9, 24 h) [µg/mL]	solubility at 24 h ([4]; HCl buffer, pH 2, simulated gastric fluid, pH 2.0 HCl buffer 2.1, 24 h) [µg/mL]	solubility at 24 h ([4]; SGF, pH 2, simulated gastric fluid, pH 2.0 SGF/2.0, 24 h) [µg/mL]	solubility ([4]; Water/7.2) [µg/mL]	solubility at 24 h ([4]; acetate buffer, pH 4.7, aqueous buffer, pH 4.7 acetate buffer/4.8, 24 h) [µg/mL]	solubility ([4]; pH 6.5 FaSSIF/6.5) [µg/mL]	solubility ([4]; pH 6.8 phosphate buffer/6.8) [µg/mL]	solubility ([4]; pH 9.0 borate buffer/8.6)	SMILES
9.5	10	0.082	0.056	10	0.117	1.6										C[C@]1(O)CC[C@H](NC(=O)c2cc(-c3ccc([C@@]45C[C@@H]4CN(C4CCC(F)(F)CC4)C5)cc3)cnc2N)CC1 [Example 82, 2-amino-5-(4-((1R,5S)-3-(4,4-difluorocyclohexyl)-3-azabicyclo[3.1.0]hexan-1-yl)phenyl)-N-((1r,4R)-4-hydroxy-4-methylcyclohexyl)nicotinamide]
15.1	10	0.1	0.36	10	0.145	5.6										CC(C)(O)C12CC(NC(=O)c3cc(-c4ccc([C@@]56C[C@@H]5CN(C5CCOCC5)C6)cc4)cnc3N)(C1)C2 [Example 83, 2-amino-N-(3-(2-hydroxypropan-2-yl)bicyclo[1.1.1]pentan-1-yl)-5-(4-((1R,5S)-3-(tetrahydro-2H-pyran-4-yl)-3-azabicyclo[3.1.0]hexan-1-yl)phenyl)nicotinamide]
21.9	20.2	2.4	9.5	20.2	0.35	20.2										Nc1ncc(-c2cccc(C(=O)N3CCOCC3)c2)cc1C(=O)NC1CCCCC1 [Example 84, 2-amino-N-cyclohexyl-5-(3-(morpholine-4-carbonyl)phenyl)nicotinamide]
15.1	10	0.19	0.86	10	0.17	9.8										C[C@@H]1CCCN1Cc1ccc(-c2cnc(N)c(C(=O)N[C@H]3CC[C@](C)(O)CC3)c2)cc1Cl [Example 85, 2-amino-5-(3-chloro-4-(((R)-2-methylpyrrolidin-1-yl)methyl)phenyl)-N-((1r,4R)-4-hydroxy-4-methylcyclohexyl)nicotinamide]
8.2	10	0.11	1.08	10	0.205	2.3										C[C@H](c1ccc(-c2cnc(N)c(C(=O)N[C@]3(C)CC[C@@H](O)CC3)c2)cc1)N1CC2(COC2)C1 [Example 86, 5-(4-((R)-1-(2-oxa-6-azaspiro[3.3]heptan-6-yl)ethyl)phenyl)-2-amino-N-((1r,4R)-4-hydroxy-1-methylcyclohexyl)nicotinamide]
15.1	10	0.88	3.55	10	0.63	10										Cc1cc(CN2CCC[C@H]2C)ccc1-c1cnc(N)c(C(=O)N[C@H]2CC[C@](C)(O)CC2)c1 [Example 87, 2-amino-N-((1r,4R)-4-hydroxy-4-methylcyclohexyl)-5-(2-methyl-4-(((R)-2-methylpyrrolidin-1-yl)methyl)phenyl)nicotinamide]
22.8	20.2	0.99	9.3	20.2	0.81	20.2										Nc1ncc(-c2cccc(C(=O)N3CCN(CCO)CC3)c2)cc1C(=O)NC1CCCCC1 [Example 88, 2-amino-N-cyclohexyl-5-(3-(4-(2-hydroxyethyl)piperazine-1-carbonyl)phenyl)nicotinamide]
							> 2000	1690 (≈ 3.36 mM)	> 2000	> 2000	70 (≈ 0.139 mM)	> 2000	470 (≈ 0.935 mM)	340 (≈ 0.676 mM)	<LOQ	Nc1ncc(-c2ccc([C@@]34C[C@@H]3CN(C3CCOCC3)C4)cc2)cc1C(=O)NC12CCC(O)(CC1)CC2 [Free form Modification HA, 2-amino-N-(4-hydroxybicyclo[2.2.2]octan-1-yl)-5-(4-((1R,5S)-3-(tetrahydro-2H-pyran-4-yl)-3-azabicyclo[3.1.0]hexan-1-yl)phenyl)nicotinamide]
